Data on four molecules can be found in patent US10138466B2, “Compositions and methods for differentiating stem cells into cell populations comprising beta-like cells” (REGENERATIVE MEDICAL SOLUTIONS, INC., priority 2014, dated 2018).

Assay [1] concerns iPS derived beta-cell clusters. Briefly: Response of iPS derived beta-cell clusters to tolbutamide. The format is cell-based, human. As for the experimental part:
Experiments were conducted to determine the effect of shipping induced islet cells on Transwells. Cells were differentiated according to the protocol described in Example 15. (ProgenMixIII). Total differentiation time was 27 days and the final product was islet-like-clusters (ILCs) in suspension. On the day of shipment, ILCs were counted and divided into individual mouse dosages: one mouse dosage per bottle. Cells were sent by FedEx overnight at 4° C. using cold packs. Leftover ILCs from shipment were used as controls.
Results are shown in FIGS. 36-42. iPS derived beta-cell clusters responded to glucose challenge and tolbutamide, a KATP channel closer.

Another assay has as its system NKX6.1 expression. Briefly: EGF at stage 5 of differentiation, NKX6.1 expression. Type of assay: cell-based, human. As to conditions: Ten to fifty ng/ml EGF at stage 5. On the procedure:
EGF was added at stage 5.

The next assay deals with T cell. As to conditions: high concentrations (1 μg/mL), murine models of T1D; cited from earlier work.
For the next assay, the system named is differentiated cells. Description: GSIS test of differentiated cells with Warfarin in stage 6 medium. Type of assay: cell-based, human. As for the experimental part:
300 ng/ml Noggin was added in step 4 and 10 uM ALK5i was added in step 5. In the final step, cells were transferred from transwell to suspension culture (in low attachment wells or flasks). […]
Warfarin was added at stage 6.

As for `CCCCNC(=O)NS(=O)(=O)c1ccc(C)cc1` [tolbutamide], in assay [1], the “response to tolbutamide, a KATP channel closer” value is recorded as “responded”.

With “EGF: growth factor added at stage 5 of differentiation”, the “NKX6.1 expression at end” value with NKX6.1 expression is “enhance NKX6.1 expression”. With “CXCL12: immune modulating chemokine, T-cell chemorepellent”, the “action on T cells” value in the assay on T cell was “T cell chemorepellent”. As to `CC(=O)CC(c1ccccc1)c1c(O)c2ccccc2oc1=O` (stereo not drawn) [Warfarin], the entries for the “SI (stimulation index) in GSIS test” value in the assay with differentiated cells (2 uM Warfarin in stage 6) and in the assay with differentiated cells (5 uM Warfarin in stage 6) were 3.0 and 3.8, respectively. For the same molecule, in the assay on differentiated cells (warfarin in the final media), the “stimulation index in GSIS test” value is “significantly increased”.
